Read-outs that look alike come from different tables or passages of the source.
How the values were obtained:
[1] = biological target: T1, HER2 (Homo sapiens, UniProt P04626); assay: Enzyme inhibitory activity on HER2 (time resolution fluorescence, biotinylated poly-Glu-Tyr substrate); format: biochemical; conditions: enzyme reaction at room temperature for 60 minutes
T1 construct: purchased Carna Biosciences, Inc; host or cells: insect cell expression system
Method in brief: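 Insect-cell-expressed HER2 (1000 ng/ml working stock) with biotinylated poly-Glu-Tyr (4:1; 3.125 μg/ml stock) and ATP (290 μM solution) in TBS with MgCl2, MnCl2, Na3VO4 and BSA, 60 min at room temperature. 10-point 4-fold dilutions from a 1 mM top solution. Phosphotyrosine detected by TR-FRET with Eu-antibody and streptavidin-XL.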

[2] = tested on: BT-474; assay: In vitro cell proliferation inhibition, WST assay; format: cell-based, human; conditions: BT-474 cells, cultured for 3 days, read-out: BT-474 (nM) proliferation inhibitory activity (IC50 value)
Experimental: Test of In Vitro Cell Proliferation Inhibition of Test Compound
As a human-derived cancer cell strain, BT-474 was used. Cells were all cultured in a 37° C., 5% CO2 incubator in a medium in which 10% bovine fetal serum (ICN) and 50 units ml penicillin/60 μg/ml streptomycin solution (GIBCO) were added to Dulbecco's Modified Essential Medium (DMEM, Nacalai Tesque, Inc).

[3] = biological target: T2, EGFR (Homo sapiens, UniProt P00533); assay: Enzyme inhibitory activity on EGFR (time resolution fluorescence, biotinylated poly-Glu-Tyr substrate); format: biochemical; conditions: enzyme reaction at room temperature for 60 minutes
T2 construct: purchased Carna Biosciences, Inc; host or cells: insect cell expression system
Method in brief: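 Insect-cell-expressed EGFR phosphorylated biotinylated poly-Glu-Tyr (4:1) for 60 min at room temperature in TBS with MgCl2, MnCl2, Na3VO4 and BSA. Enzyme 250 ng/ml, substrate 3.125 μg/ml and ATP 125 μM as working solutions. EDTA stop; Eu anti-phosphotyrosine/streptavidin-XL time-resolved fluorescence read; 10-point 4-fold dilutions.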

T1 sequence (P04626 23-1255): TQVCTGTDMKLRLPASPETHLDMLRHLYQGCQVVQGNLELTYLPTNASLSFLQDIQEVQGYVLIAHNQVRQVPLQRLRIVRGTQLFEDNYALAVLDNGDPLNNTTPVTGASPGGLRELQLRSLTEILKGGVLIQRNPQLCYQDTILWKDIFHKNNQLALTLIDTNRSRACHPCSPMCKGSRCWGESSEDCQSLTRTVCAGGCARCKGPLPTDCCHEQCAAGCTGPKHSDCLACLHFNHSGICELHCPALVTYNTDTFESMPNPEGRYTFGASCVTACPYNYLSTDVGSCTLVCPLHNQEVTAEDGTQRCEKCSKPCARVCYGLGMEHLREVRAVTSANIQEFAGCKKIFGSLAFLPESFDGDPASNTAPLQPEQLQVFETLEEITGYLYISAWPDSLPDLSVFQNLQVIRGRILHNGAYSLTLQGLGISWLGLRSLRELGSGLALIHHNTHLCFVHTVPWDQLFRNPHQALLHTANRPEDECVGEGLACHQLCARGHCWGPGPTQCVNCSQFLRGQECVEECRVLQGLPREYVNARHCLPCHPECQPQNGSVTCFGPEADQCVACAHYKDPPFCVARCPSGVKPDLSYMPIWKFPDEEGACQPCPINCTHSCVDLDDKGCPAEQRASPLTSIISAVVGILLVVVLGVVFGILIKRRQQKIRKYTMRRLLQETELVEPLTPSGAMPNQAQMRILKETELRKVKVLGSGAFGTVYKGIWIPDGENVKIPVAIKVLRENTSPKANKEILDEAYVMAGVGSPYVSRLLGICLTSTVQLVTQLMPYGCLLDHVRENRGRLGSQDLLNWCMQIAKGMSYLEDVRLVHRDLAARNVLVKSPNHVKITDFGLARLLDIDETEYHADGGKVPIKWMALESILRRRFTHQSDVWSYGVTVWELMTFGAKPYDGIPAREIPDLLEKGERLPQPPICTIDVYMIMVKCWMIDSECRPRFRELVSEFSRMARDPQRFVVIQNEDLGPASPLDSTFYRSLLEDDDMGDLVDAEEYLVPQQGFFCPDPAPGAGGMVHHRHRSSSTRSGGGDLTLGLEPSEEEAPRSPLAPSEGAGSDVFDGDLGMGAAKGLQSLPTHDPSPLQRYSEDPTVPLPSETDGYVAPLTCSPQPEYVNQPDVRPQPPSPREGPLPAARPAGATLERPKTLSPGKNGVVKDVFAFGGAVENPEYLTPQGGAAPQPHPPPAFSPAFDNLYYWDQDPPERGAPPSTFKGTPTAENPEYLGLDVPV
T2 sequence (P00533 25-1210): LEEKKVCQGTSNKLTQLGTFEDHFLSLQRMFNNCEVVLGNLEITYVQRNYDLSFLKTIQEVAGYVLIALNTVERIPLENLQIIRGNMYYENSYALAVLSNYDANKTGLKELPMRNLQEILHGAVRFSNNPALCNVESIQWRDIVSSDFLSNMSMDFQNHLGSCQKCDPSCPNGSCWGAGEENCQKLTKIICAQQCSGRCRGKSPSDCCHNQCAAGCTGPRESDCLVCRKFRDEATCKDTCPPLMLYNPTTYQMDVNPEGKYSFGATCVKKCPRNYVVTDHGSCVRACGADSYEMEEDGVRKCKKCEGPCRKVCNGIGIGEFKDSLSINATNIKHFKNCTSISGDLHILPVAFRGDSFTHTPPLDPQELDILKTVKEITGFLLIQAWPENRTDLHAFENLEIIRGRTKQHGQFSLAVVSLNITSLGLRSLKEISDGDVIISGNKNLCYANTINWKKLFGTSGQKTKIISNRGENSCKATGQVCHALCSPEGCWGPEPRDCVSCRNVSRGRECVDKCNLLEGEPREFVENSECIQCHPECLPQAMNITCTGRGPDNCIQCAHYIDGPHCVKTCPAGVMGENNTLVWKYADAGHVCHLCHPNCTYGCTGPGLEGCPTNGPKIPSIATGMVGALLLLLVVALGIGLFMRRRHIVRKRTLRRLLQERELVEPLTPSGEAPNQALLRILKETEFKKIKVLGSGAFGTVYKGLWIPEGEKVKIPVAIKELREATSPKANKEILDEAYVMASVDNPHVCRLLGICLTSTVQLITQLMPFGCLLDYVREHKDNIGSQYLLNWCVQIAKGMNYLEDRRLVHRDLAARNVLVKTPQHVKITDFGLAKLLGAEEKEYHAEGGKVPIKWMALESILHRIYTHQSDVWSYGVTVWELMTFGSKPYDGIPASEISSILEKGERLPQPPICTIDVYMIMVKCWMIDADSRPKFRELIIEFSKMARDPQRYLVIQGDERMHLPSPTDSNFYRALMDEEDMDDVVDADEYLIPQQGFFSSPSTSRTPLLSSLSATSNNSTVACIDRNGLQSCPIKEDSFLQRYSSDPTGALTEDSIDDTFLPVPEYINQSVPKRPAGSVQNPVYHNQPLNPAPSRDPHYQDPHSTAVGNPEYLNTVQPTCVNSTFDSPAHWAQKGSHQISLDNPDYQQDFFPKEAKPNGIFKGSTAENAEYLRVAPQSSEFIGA

Row | IC50 [1] [nM] | IC50 ([2]; Homo sapiens, BT-474, 72 h) [nM] | IC50 [3] [nM] | IC50 [2] [nM] | Compound
1 | 19 | 47 | 20 |  | CC#C/C(=N\OCCN1CC[C@@H](OC(N)=O)C1)c1ccc2ncnc(Nc3ccc(OCc4ccccn4)c(Cl)c3)c2c1 [VIII-151]
2 | 4.3 | 22 | 2.4 |  | CC#C/C(=N\OC[C@@H]1C[C@H](O)CN1)c1ccc2ncnc(Nc3ccc(OCc4ccccn4)c(Cl)c3)c2c1 [VIII-152]
3 | 11 | 21 | 10 |  | CC#C/C(=N\OC[C@@H]1CCCN1)c1ccc2ncnc(Nc3ccc(OCc4ccccn4)c(Cl)c3)c2c1 [VIII-153]
4 | 9 | 31 | 9.5 |  | CC#C/C(=N\OC[C@@H]1CCCN1C)c1ccc2ncnc(Nc3ccc(OCc4ccccn4)c(Cl)c3)c2c1 [VIII-154]
5 | 8 | 28 | 10 |  | CC#C/C(=N\O[C@@H]1CN[C@H](CO)C1)c1ccc2ncnc(Nc3ccc(OCc4ccccn4)c(Cl)c3)c2c1 [VIII-155]
6 | 6.4 | 24 | 7 |  | CC#C/C(=N\OC[C@@H]1C[C@@H](O)CN1)c1ccc2ncnc(Nc3ccc(OCc4ccccn4)c(Cl)c3)c2c1 [VIII-156]
7 | 4 | 25 | 4.1 |  | CC#C/C(=N\OC[C@H]1CCCN1)c1ccc2ncnc(Nc3ccc(OCc4ccccn4)c(Cl)c3)c2c1 [VIII-157]
8 | 3.8 | 27 | 3.8 |  | CC#C/C(=N\OC[C@H]1CCCN1C)c1ccc2ncnc(Nc3ccc(OCc4ccccn4)c(Cl)c3)c2c1 [VIII-158]
9 | 19 | 15 | 16 |  | CC#C/C(=N\OC[C@H]1CCCN1CCO)c1ccc2ncnc(Nc3ccc(OCc4ccccn4)c(Cl)c3)c2c1 [VIII-159]
10 | 18 | 47 | 17 |  | CC#C/C(=N\OC[C@@H]1CCCN1CCO)c1ccc2ncnc(Nc3ccc(OCc4ccccn4)c(Cl)c3)c2c1 [VIII-160]
11 | 15 | 49 | 14 |  | CC#C/C(=N\O[C@H]1CN[C@H](CO)C1)c1ccc2ncnc(Nc3ccc(OCc4ccccn4)c(Cl)c3)c2c1 [VIII-161]
12 | 62 | 42 | 51 |  | CC#C/C(=N\OCCN1CCS(=O)(=O)CC1)c1ccc2ncnc(Nc3ccc(OCc4ccccn4)c(Cl)c3)c2c1 [VIII-162]
13 | 27 | 38 | 23 |  | CC#C/C(=N\OCCN1CCOCC1)c1ccc2ncnc(Nc3ccc(OCc4ccccn4)c(Cl)c3)c2c1 [VIII-163]
14 | 7.6 | 31 | 7.3 |  | CC#C/C(=N\OCCN1CCN(C)CC1)c1ccc2ncnc(Nc3ccc(OCc4ccccn4)c(Cl)c3)c2c1 [VIII-164]
15 | 11 | 23 | 11 |  | CC#C/C(=N\OCCN1CCC(O)CC1)c1ccc2ncnc(Nc3ccc(OCc4ccccn4)c(Cl)c3)c2c1 [VIII-165]
16 | 4.2 | 21 | 4.8 |  | CC#C/C(=N\OC[C@H]1COCCN1)c1ccc2ncnc(Nc3ccc(OCc4ccccn4)c(Cl)c3)c2c1 [VIII-167]
17 | 9 | 44 | 8 |  | CC#C/C(=N\OC[C@@H]1CNCCO1)c1ccc2ncnc(Nc3ccc(OCc4ccccn4)c(Cl)c3)c2c1 [VIII-168]
18 | 15 | 35 | 13 |  | CC#C/C(=N\OC[C@@H]1COCCN1)c1ccc2ncnc(Nc3ccc(OCc4ccccn4)c(Cl)c3)c2c1 [VIII-169]
19 | 5.6 | 19 | 5 |  | CC#CC(=NOCC1CNCCN1)c1ccc2ncnc(Nc3ccc(OCc4ccccn4)c(Cl)c3)c2c1 (stereo not drawn) [VIII-170]
20 | 11.7 | 52 | 9.9 |  | CC#C/C(=N\OC[C@H]1CNCC(=O)N1)c1ccc2ncnc(Nc3ccc(OCc4ccccn4)c(Cl)c3)c2c1 [VIII-171]
21 | 16 | 70 | 14 |  | CC#CC(=NOCC1CN(C)CCN1C)c1ccc2ncnc(Nc3ccc(OCc4ccccn4)c(Cl)c3)c2c1 (stereo not drawn) [VIII-172]
22 | 3.9 | 40 | 4.8 |  | CC#C/C(=N\OC[C@H]1CNCCO1)c1ccc2ncnc(Nc3ccc(OCc4ccccn4)c(Cl)c3)c2c1 [VIII-173]
23 | 28 | 14 | 25 |  | CC#C/C(=N\OC[C@H]1CN(CCO)CCN1)c1ccc2ncnc(Nc3ccc(OCc4ccccn4)c(Cl)c3)c2c1 [VIII-174]

Row | IC50 [1] [nM] | IC50 ([2]; Homo sapiens, BT-474, 72 h) [nM] | IC50 [3] [nM] | IC50 [2] [nM] | Compound
24 | 26 | 26 | 23 |  | CC#C/C(=N\OC[C@H]1CN(C)CCN1)c1ccc2ncnc(Nc3ccc(OCc4ccccn4)c(Cl)c3)c2c1 [VIII-176]
25 | 5.8 | 79 | 7.3 |  | CC#C/C(=N\OC[C@H]1CNC[C@@H](C)O1)c1ccc2ncnc(Nc3ccc(OCc4ccccn4)c(Cl)c3)c2c1 [VIII-177]
26 | 8.2 | 36 | 8.1 |  | CC#C/C(=N\OC[C@H]1CNC[C@H](C)O1)c1ccc2ncnc(Nc3ccc(OCc4ccccn4)c(Cl)c3)c2c1 [VIII-178]
27 | 5 | 48 | 4.6 |  | CC#C/C(=N\OC[C@@H]1CNCC(=O)N1)c1ccc2ncnc(Nc3ccc(OCc4ccccn4)c(Cl)c3)c2c1 [VIII-179]
28 | 6 | 5 | 7.8 |  | CNCCO/N=C(\C#CCOC)c1ccc2ncnc(Nc3ccc(OCc4ccccn4)c(Cl)c3)c2c1 [VIII-180]
29 | 7.3 | 20 | 4.7 |  | CC#C/C(=N\OCCNC)c1ccc2ncnc(Nc3ccc(OCc4ccccn4)c(Cl)c3)c2c1 [VIII-182]
30 | 8.3 | 10 | 7.1 |  | CC#C/C(=N\OCCNC)c1ccc2ncnc(Nc3ccc4c(cnn4Cc4cccc(F)c4)c3)c2c1 [VIII-183]
31 | 7 | 9 | 10 |  | CC#C/C(=N\OCCNCCNC(C)=O)c1ccc2ncnc(Nc3ccc4c(cnn4Cc4cccc(F)c4)c3)c2c1 [VIII-184]
32 | 12.5 | 12 | 6.8 |  | CC#C/C(=N\OCCNCCNS(C)(=O)=O)c1ccc2ncnc(Nc3ccc4c(cnn4Cc4cccc(F)c4)c3)c2c1 [VIII-185]
33 | 26 | 29 | 19 |  | CC#C/C(=N\OCCNCCN(C)S(C)(=O)=O)c1ccc2ncnc(Nc3ccc4c(cnn4Cc4cccc(F)c4)c3)c2c1 [VIII-186]
34 | 9 | 24 | 10 |  | CC#C/C(=N\OCCNCCOC(N)=O)c1ccc2ncnc(Nc3ccc4c(cnn4Cc4cccc(F)c4)c3)c2c1 [VIII-187]
35 | 30 | 40 | 20 |  | CC#C/C(=N\OCCNC[C@H]1CCCO1)c1ccc2ncnc(Nc3ccc4c(cnn4Cc4cccc(F)c4)c3)c2c1 [VIII-188]
36 | 27 | 25 | 17 |  | CC#C/C(=N\OCCNC[C@@H]1CCCO1)c1ccc2ncnc(Nc3ccc4c(cnn4Cc4cccc(F)c4)c3)c2c1 [VIII-189]
37 | 11.1 | 14 | 8.9 |  | CC#C/C(=N\OCCNC[C@H]1CCC(=O)N1)c1ccc2ncnc(Nc3ccc4c(cnn4Cc4cccc(F)c4)c3)c2c1 [VIII-190]
38 | 42 | 33 | 17 |  | CC#C/C(=N\OCCNC[C@@H]1COC(=O)N1)c1ccc2ncnc(Nc3ccc4c(cnn4Cc4cccc(F)c4)c3)c2c1 [VIII-191]
39 | 14.2 | 24 | 6.2 |  | CC#C/C(=N\OCCN(CC)CCOC)c1ccc2ncnc(Nc3ccc4c(cnn4Cc4cccc(F)c4)c3)c2c1 [VIII-192]
40 | 15 | 25 | 14 |  | CC#C/C(=N\OCCN1CC[C@@H](OC(N)=O)C1)c1ccc2ncnc(Nc3ccc4c(cnn4Cc4cccc(F)c4)c3)c2c1 [VIII-193]
41 | 13 |  | 8.6 | 25 | CC#C/C(=N\OC[C@@H]1C[C@H](O)CN1)c1ccc2ncnc(Nc3ccc4c(cnn4Cc4cccc(F)c4)c3)c2c1 [VIII-194]
42 | 43 | 29 | 45 |  | CC#C/C(=N\OCCN1CCOCC1)c1ccc2ncnc(Nc3ccc4c(cnn4Cc4cccc(F)c4)c3)c2c1 [VIII-195]
43 | 20 | 28 | 11 |  | CC#C/C(=N\OCCN1CCNC(=O)C1)c1ccc2ncnc(Nc3ccc4c(cnn4Cc4cccc(F)c4)c3)c2c1 [VIII-196]
44 | 21 | 14 | 9 |  | CC#C/C(=N\OC[C@@H]1COCCN1)c1ccc2ncnc(Nc3ccc4c(cnn4Cc4cccc(F)c4)c3)c2c1 [VIII-197]
45 | 4.6 | 10 | 3.6 |  | CC#CC(=NOCC1CNCCN1)c1ccc2ncnc(Nc3ccc4c(cnn4Cc4cccc(F)c4)c3)c2c1 (stereo not drawn) [VIII-198]
46 | 5.2 | 33 | 6.3 |  | CNCCO/N=C(\C#CCOC)c1ccc2ncnc(Nc3ccc4c(cnn4Cc4cccc(F)c4)c3)c2c1 [VIII-199]

Source: US8202879B2, “Quinazoline derivatives having tyrosine kinase inhibitory activity” (Shionogi & Co., Ltd., priority 2005, dated 2012)
